In patent US9992981B2, “Optogenetic control of reward-related behaviors” (The Board of Trustees of the Leland Stanford Junior …, priority 2010, dated 2018):
Like-named read-outs stand apart in the source and are kept apart here.

Assays:
MSNs = experiment: IPSCs in MSNs during photostimulation of ChR2-expressing ChAT neurons in acute NAc slices; format: cell-based, mice
Procedure: Coronal cerebral brain slices were prepared from adult mice with virus previously injected (>2 weeks prior to slicing), using standard techniques in strict accordance with a protocol approved by the Animal Care and Use Committee at Stanford University. Coronal slices 250 μm thick were cut with a vibratome using a sapphire blade in ice cold N-methyl-D-glucamine (NMDG)-based cutting solution containing 135 mM NMDG, 1 mM KCl, 1.2 mM KH2PO4, 20 mM choline bicarbonate, 10 mM glucose, 1.5 mM MgCl2 and 0.5 mM CaCl2. Slices were maintained thereafter in artificial cerebral spinal fluid (ACSF) containing 119 mM NaCl, 2.5 mM KCl, 2.5 mM CaCl2, 1.3 mM MgCl2, 1 mM NaH2PO4, 26.2 mM NaHCO3 and 11 mM glucose. Slices were maintained in ACSF at 37° C. for 30 minutes, and thereafter at room temperature. ACSF was bubbled constantly with 95% O2/5% CO2 and heated to 34° C. for all experiments. Neurons were visualized on an upright microscope (Leica DM-LFSA) equipped with both DIC optics and a filter set for visualizing eYFP using a ×40 water-immersion objective and a charge-coupled device (CCD) camera. Whole-cell recordings were made from neurons using the electrode solution containing 120 mM potassium gluconate, 20 mM HEPES, 10 mM EGTA, 1 mM MgCl2, 2 mM Na-ATP, and 0.2 mM Na-GTP (pH 7.3, 290 mOsm/L); in experiments recording IPSCs, KCl was used to replace potassium gluconate. Pipette resistances were 3-5 MΩ, and recordings were made without series resistance compensation. Membrane potentials have been corrected for the error resulting from the liquid junction potentials. The holding potential (VM) for voltage-clamp experiments was −70 mV. […] […] Photocurrents were evoked using an optical switch with a 300W xenon lamp and either a 470±20 nm or a 580±20 nm bandpass filters; light power at the specimen was 11.52 mW mm^−2 (470 nm) or 10.64 mW mm^−2 (580 nm). Currents filtered at 2 kHz, digitized at 50 kHz, and recorded to disk using pClamp10 software (Axon Instruments).

ChAT neurons = experiment: Cocaine response of ChAT cells in slice (spontaneous firing); format: cell-based, mice; settings: 5 μM cocaine bath, at 10 min; baseline 0.60±0.41 Hz; n=7
Procedure: Coronal cerebral brain slices were prepared from adult mice with virus previously injected (>2 weeks prior to slicing), using standard techniques in strict accordance with a protocol approved by the Animal Care and Use Committee at Stanford University. Coronal slices 250 μm thick were cut with a vibratome using a sapphire blade in ice cold N-methyl-D-glucamine (NMDG)-based cutting solution containing 135 mM NMDG, 1 mM KCl, 1.2 mM KH2PO4, 20 mM choline bicarbonate, 10 mM glucose, 1.5 mM MgCl2 and 0.5 mM CaCl2. Slices were maintained thereafter in artificial cerebral spinal fluid (ACSF) containing 119 mM NaCl, 2.5 mM KCl, 2.5 mM CaCl2, 1.3 mM MgCl2, 1 mM NaH2PO4, 26.2 mM NaHCO3 and 11 mM glucose. Slices were maintained in ACSF at 37° C. for 30 minutes, and thereafter at room temperature. ACSF was bubbled constantly with 95% O2/5% CO2 and heated to 34° C. for all experiments. Neurons were visualized on an upright microscope (Leica DM-LFSA) equipped with both DIC optics and a filter set for visualizing eYFP using a ×40 water-immersion objective and a charge-coupled device (CCD) camera. […] Currents filtered at 2 kHz, digitized at 50 kHz, and recorded to disk using pClamp10 software (Axon Instruments).

[1] = after 15 minutes, cited from earlier work
[2] = system: ChAT interneurons of the NAc; experiment: Conditioned place preference (CPP); format: in vivo, mice
[3] = Wavelength sensitivity of identified opsins (Tables 1 and 2); settings: Table 1, opsins for inhibition

Br.COc1ccc(-c2ccc(=N)n(CCCC(=O)O)n2)cc1 [SR-95531]
effect on light-evoked synaptic currents in MSN (MSNs; SR-95531 (5 mM), NBQX and RS-CPP present): blocked

COC(=O)[C@H]1[C@@H](OC(=O)c2ccccc2)C[C@@H]2CC[C@H]1N2C [cocaine, benzoylmethylecgonine]
firing rate of ChAT neurons after cocaine (ChAT neurons): 1.74±0.56 Hz | cocaine in the brain ([1]; i.p. 10 mg/kg): 4.7 µM | cocaine in the brain ([1]; i.p. 20 mg/kg): 9.4 µM | Conditioned side (min), total time on cocaine-paired side on testing day ([2]; ChAT::Cre+ (eNphR3.0 inhibition paired with cocaine), 10 mg/kg): 10.3 min | Conditioned side (min), total time on cocaine-paired side on testing day ([2]; ChAT::Cre+ (eNphR3.0 inhibition paired with cocaine), 20 mg/kg): 10.7 min | Conditioned side (min), total time on cocaine-paired side on testing day ([2]; ChAT::Cre+ (eNphR3.0 inhibition paired with cocaine), 40 mg/kg): 10.5 min | Conditioned side (min), total time on cocaine-paired side on testing day ([2]; ChAT::Cre− control littermates, 10 mg/kg): 8.5 min | Conditioned side (min), total time on cocaine-paired side on testing day ([2]; ChAT::Cre− control littermates, 20 mg/kg): 14.2 min | Conditioned side (min), total time on cocaine-paired side on testing day ([2]; ChAT::Cre− control littermates, 40 mg/kg): 9.2 min

CNC1(C)C2CCC(C2)C1(C)C (centres unmarked) [mecamylamine]
IPSC frequency with light and mecamylamine (MSNs; 10 μM mecamylamine, light alone raised 3.4+/−1.3 Hz to 10.1+/−1.2 Hz, 470 nm, 10 Hz): 5.1+/−1.8 Hz | effect on light-evoked increase of IPSC frequency (MSNs; n=5, P<0.05): attenuated

B1: NpHR: halorhodopsin from Natronomonas pharaonis (protein, UniProt P15647 1-291, looked up)
Halorhodopsin: MTETLPPVTESAVALQAEVTQRELFEFVLNDPLLASSLYINIALAGLSILLFVFMTRGLDDPRAKLIAVSTILVPVVSIASYTGLASGLTISVLEMPAGHFAEGSSVMLGGEEVDGVVTMWGRYLTWALSTPMILLALGLLAGSNATKLFTAITFDIAMCVTGLAAALTTSSHLMRWFWYAISCACFLVVLYILLVEWAQDAKAAGTADMFNTLKLLTVVMWLGYPIVWALGVEGIAVLPVGVTSWGYSFLDIVAKYIFAFLLLNYLTSNESVVSGSILDVPSASGTPADD
Wavelength Sensitivity (max) [3]: 589 nm max

B2: BR: opsin for inhibition, biological origin Halobacterium helobium (protein, UniProt P02945 14-262, looked up)
Bacteriorhodopsin: QAQITGRPEWIWLALGTALMGLGTLYFLVKGMGVSDPDAKKFYAITTLVPAIAFTMYLSMLLGYGLTMVPFGGEQNPIYWARYADWLFTTPLLLLDLALLVDADQGTILALVGADGIMIGTGLVGALTKVYSYRFVWWAISTAAMLYILYVLFFGFTSKAESMRPEVASTFKVLRNVTVVLWSAYPVVWLIGSEGAGIVPLNIETLLFMVLDVSAKVGFGLILLRSRAIFGEAEAPEPSAGDGAAATSD
Wavelength Sensitivity (max) [3]: 570 nm max
